Test [1] deals with T1, EGFR WT (Homo sapiens, UniProt P00533).
T1 construct: purchased Thermo Fisher, Carlsbad, CA ERBB1 PR7295B
Nature of the test: Enzymatic assay EGFR WT (method c). It is filed as biochemical. The conditions noted are these: [EGFR WT]=2 nM, [ATP]=1 mM, [Peptide 22]=1 μM. The method, boiled down: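 Microfluidic mobility-shift kinase assay with Peptide 22 (1 μM) in HEPES pH 7.5, MnCl2, MgCl2, Tween 20, TCEP. HER2 WT 12.5 nM and HER2 YVMA 5 nM each used 25 μM ATP; EGFR WT 2 nM used 1 mM ATP. IC50 came from initial-velocity (0–3600 s) percent inhibition, fitted to a variable-slope model.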

Test [2] concerns the target EGFR (Homo sapiens, UniProt P00533). Nature of the test: EGFR signaling (pEGFR Tyr1068/total EGFR MSD) in A431 cells. It is filed as cell-based. As to conditions: for pEC50: A431 cells, read-out: A431 pEGFR EC50; for Selectivity A431 EC50/BT474 EC50: ratio A431 pEGFR EC50 to BT474 pHER2 EC50; for Selectivity A431 EC50/HEKYVMA EC50: ratio A431 pEGFR EC50 to HEK YVMA pHER2 EC50. On the set-up: endogenous in cells; host or cells: A431, N87. In outline:
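Serum-starved A431 cells were pretreated 1.5 h in 1% FBS with compound (0.005–10 μM, 0.1% DMSO), then stimulated with 100 ng/mL human EGF for 10 min. Lysate pEGFR Tyr1068 was measured by MSD and normalized to total EGFR as % DMSO control; EC50 from variable-slope sigmoidal fit.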

The values that follow come from patent US20240391931A1 (Bristol-Myers Squibb Company, priority 2021, published 2024).

Molecules are shown by their SMILES. pEC50, pIC50: −log10 of the molar value.

T1 sequence (P00533 25-1210): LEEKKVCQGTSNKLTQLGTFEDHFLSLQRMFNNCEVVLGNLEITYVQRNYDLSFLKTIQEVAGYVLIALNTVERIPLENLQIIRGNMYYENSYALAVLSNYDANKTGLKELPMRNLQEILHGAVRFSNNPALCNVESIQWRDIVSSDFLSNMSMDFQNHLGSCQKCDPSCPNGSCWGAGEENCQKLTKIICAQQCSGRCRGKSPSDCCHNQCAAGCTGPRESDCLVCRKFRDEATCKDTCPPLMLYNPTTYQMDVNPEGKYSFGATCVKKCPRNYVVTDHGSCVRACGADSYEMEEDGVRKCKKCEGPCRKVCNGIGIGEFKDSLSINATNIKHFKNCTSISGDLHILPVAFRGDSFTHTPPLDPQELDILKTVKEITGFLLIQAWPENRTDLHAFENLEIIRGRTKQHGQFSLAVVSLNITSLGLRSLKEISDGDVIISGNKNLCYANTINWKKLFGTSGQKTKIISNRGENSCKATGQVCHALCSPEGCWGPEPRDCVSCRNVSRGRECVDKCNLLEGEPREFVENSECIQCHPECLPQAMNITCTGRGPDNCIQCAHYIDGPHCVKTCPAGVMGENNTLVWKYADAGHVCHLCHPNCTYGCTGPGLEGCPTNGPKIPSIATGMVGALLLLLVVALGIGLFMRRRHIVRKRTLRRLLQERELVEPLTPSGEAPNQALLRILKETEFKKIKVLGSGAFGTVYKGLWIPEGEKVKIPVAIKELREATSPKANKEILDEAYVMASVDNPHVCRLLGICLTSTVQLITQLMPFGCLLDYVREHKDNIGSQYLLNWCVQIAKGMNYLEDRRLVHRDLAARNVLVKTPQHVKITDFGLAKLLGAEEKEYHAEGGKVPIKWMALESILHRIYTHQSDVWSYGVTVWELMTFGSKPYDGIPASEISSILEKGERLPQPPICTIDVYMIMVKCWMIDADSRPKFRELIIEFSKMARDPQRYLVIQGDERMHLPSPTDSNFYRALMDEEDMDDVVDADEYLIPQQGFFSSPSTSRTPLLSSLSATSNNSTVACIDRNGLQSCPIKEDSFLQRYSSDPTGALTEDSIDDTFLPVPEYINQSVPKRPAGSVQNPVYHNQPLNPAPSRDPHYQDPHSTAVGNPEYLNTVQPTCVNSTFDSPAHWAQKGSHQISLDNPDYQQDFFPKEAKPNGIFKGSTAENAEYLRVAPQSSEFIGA
Chain of EGFR (P00533 25-1210): as above

`Cc1ccc(Oc2ccc(Nc3ncnc4sc5c(c34)CCN(C(=O)/C=C/CN[C@H]3CC[C@H](OCC(F)(F)F)CC3)C5)cc2C)cn1` [Compound 70] had a pIC50 in test [1] of 5.00 to 6.00. Also, in test [2], the pEC50 was greater than 7.00; the “Selectivity A431 EC50/BT474 EC50” value is “D (D: ≥ 5 and < 10)”; the “Selectivity A431 EC50/HEKYVMA EC50” value was “E (E: >1 and < 5)”.

In test [1], `Cc1cc(Nc2ncnc3sc4c(c23)CCN(C(=O)/C=C/CN(C)C(C)(C)C)C4)ccc1Oc1ccc2ncnn2c1` [Compound 80] showed a negative-log IC50 (pIC50) of less than 5.00. For the same compound, in test [2], the pEC50 is 6.00 to 7.00; the “Selectivity A431 EC50/BT474 EC50” value is “B (B: ≥ 20 and < 100)”; the “Selectivity A431 EC50/HEKYVMA EC50” value is “B (B: ≥ 20 and < 100)”.

The compound `Cc1ccc(Oc2ccc(Nc3ncnc4sc5c(c34)CCN(C(=O)/C=C/CNCCS(C)(=O)=O)C5)cc2C)cn1` [Compound 45] had a pIC50 in test [1] of less than 5.00. Besides, in test [2], the pEC50 is 6.00 to 7.00; the “Selectivity A431 EC50/BT474 EC50” value was “C (C: ≥ 10 and < 20)”; the “Selectivity A431 EC50/HEKYVMA EC50” value is “D (D: ≥ 5 and < 10)”.

The compound `Cc1ccc(Oc2ccc(Nc3ncnc4sc5c(c34)CCN(C(=O)/C=C/CN[C@H]3CC[C@H](OC(F)F)CC3)C5)cc2C)cn1` [Compound 69] showed a pIC50 in test [1] of 5.00 to 6.00. Moreover, in test [2], the negative logarithm of the EC50 (pEC50) was greater than 7.00; the “Selectivity A431 EC50/BT474 EC50” value was “A (A: ≥100)”; the “Selectivity A431 EC50/HEKYVMA EC50” value was “D (D: ≥ 5 and < 10)”.

For the compound `Cc1cc(Nc2ncnc3sc4c(c23)CCN(C(=O)/C=C/CN(C)C)C4)ccc1Oc1ccc2nonc2c1` [Compound 104, (E)-1-(4-((4-(Benzo[c][1,2,5]oxadiazol-5-yloxy)-3-methylphenyl)amino)-5,6-dihydropyrido[4′,3′:4,5]thieno[2,3-d]pyrimidin-7(8H)-yl)-4-(dimethylamino)but-2-en-1-one], the pIC50 in test [1] is less than 5.00. Moreover, in test [2], the pEC50 is greater than 7.00; the “Selectivity A431 EC50/BT474 EC50” value was “D (D: ≥ 5 and < 10)”; the “Selectivity A431 EC50/HEKYVMA EC50” value is “D (D: ≥ 5 and < 10)”.

Take `Cc1ccc(Oc2ccc(Nc3ncnc4sc5c(c34)CCN(C(=O)/C=C/CN3CC4(C3)CS(=O)(=O)C4)C5)cc2C)cn1` [Compound 57]: in test [1], the pIC50 was less than 5.00. Besides, in test [2], the pEC50 is greater than 7.00; the “Selectivity A431 EC50/BT474 EC50” value is “D (D: ≥ 5 and < 10)”; the “Selectivity A431 EC50/HEKYVMA EC50” value is “D (D: ≥ 5 and < 10)”.

With `Cc1ccc(Oc2ccc(Nc3ncnc4sc5c(c34)CCN(C(=O)/C=C/CNC3CC3)C5)cc2C)cn1` [Compound 40], in test [1], the negative logarithm of the IC50 (pIC50) is 5.00 to 6.00. Moreover, in test [2], the negative logarithm of the EC50 (pEC50) is greater than 7.00; the “Selectivity A431 EC50/BT474 EC50” value is “B (B: ≥ 20 and < 100)”; the “Selectivity A431 EC50/HEKYVMA EC50” value was “B (B: ≥ 20 and < 100)”.

Turning to `Cc1ccc(Oc2ccc(Nc3ncnc4sc5c(c34)CCN(C(=O)/C=C/CNC3COC3)C5)cc2C)cn1` [Compound 38], the pIC50 in test [1] was less than 5.00. For the same compound, in test [2], the negative-log EC50 (pEC50) is 6.00 to 7.00; the “Selectivity A431 EC50/BT474 EC50” value was “C (C: ≥ 10 and < 20)”; the “Selectivity A431 EC50/HEKYVMA EC50” value is “D (D: ≥ 5 and < 10)”.

Turning to `Cc1ccc(Oc2ccc(Nc3ncnc4sc5c(c34)CCN(C(=O)/C=C/CN[C@H]3CC[C@H](OC4CC4)CC3)C5)cc2C)cn1` [Compound 68], the pIC50 in test [1] was less than 5.00. Further, in test [2], the pEC50 was greater than 7.00; the “Selectivity A431 EC50/BT474 EC50” value was “D (D: ≥ 5 and < 10)”; the “Selectivity A431 EC50/HEKYVMA EC50” value is “E (E: >1 and < 5)”.

In turn, `Cc1cc(Nc2ncnc3sc4c(c23)CCN(C(=O)/C=C/CN(C)C)C4)ccc1Oc1ccc2cn[nH]c2c1` [Compound 23, (E)-1-(4-((4-((1H-indazol-6-yl)oxy)-3-methylphenyl)amino)-5,8-dihydropyrido[4′,3′:4,5]thieno[2,3-d]pyrimidin-7(6H)-yl)-4-(dimethylamino)but-2-en-1-one] gave a pIC50 in test [1] of 5.00 to 6.00. Also, in test [2], the pEC50 is greater than 7.00; the “Selectivity A431 EC50/BT474 EC50” value is “D (D: ≥ 5 and < 10)”; the “Selectivity A431 EC50/HEKYVMA EC50” value was “E (E: >1 and < 5)”.

Compound `Cc1cc(Nc2ncnc3sc4c(c23)CCN(C(=O)/C=C/CN2CC3CCC(C3)C2)C4)ccc1Oc1ccc2ncnn2c1` [Compound 20] showed a pIC50 in test [1] of 5.00 to 6.00. In test [2], the pEC50 was greater than 7.00; the “Selectivity A431 EC50/BT474 EC50” value is “B (B: ≥ 20 and < 100)”; the “Selectivity A431 EC50/HEKYVMA EC50” value was “B (B: ≥ 20 and < 100)”.

The compound `Cc1ccc(Oc2ccc(Nc3ncnc4sc5c(c34)CCN(C(=O)/C=C/CN(CCO)CCO)C5)cc2C)cn1` [Compound 37] gave a pIC50 in test [1] of 5.00 to 6.00. Besides, in test [2], the pEC50 is less than 5.00; the “Selectivity A431 EC50/BT474 EC50” value is recorded as “A (A: ≥100)”; the “Selectivity A431 EC50/HEKYVMA EC50” value was “B (B: ≥ 20 and < 100)”.

For `CN(C)C/C=C/C(=O)N1CCc2c(sc3ncnc(Nc4ccc(Oc5ccc6ncnn6c5)c(Cl)c4)c23)C1` [Compound 5, (E)-1-(4-((4-([1,2,4]triazolo[1,5-a]pyridin-6-yloxy)-3-chlorophenyl)amino)-5,8-dihydropyrido[4′,3′:4,5]thieno[2,3-d]pyrimidin-7(6H)-yl)-4-(dimethylamino)but-2-en-1-one], the pIC50 in test [1] was less than 5.00. In addition, in test [2], the pEC50 is 6.00 to 7.00; the “Selectivity A431 EC50/HEKYVMA EC50” value is “B (B: ≥ 20 and < 100)”.

With `O=C(/C=C/CN1CC2CCC(C2)C1)N1CCc2c(sc3ncnc(Nc4ccc(Oc5ccc6ncnn6c5)c(Cl)c4)c23)C1` [Compound 88], in test [1], the pIC50 was less than 5.00. Besides, in test [2], the pEC50 was greater than 7.00; the “Selectivity A431 EC50/BT474 EC50” value is “C (C: ≥ 10 and < 20)”; the “Selectivity A431 EC50/HEKYVMA EC50” value was “C (C: ≥ 10 and < 20)”.

In test [1], `Cc1cc(Nc2ncnc3sc4c(c23)CN(C(=O)/C=C/CN(C)C)CC4)ccc1Oc1ccc2ncnn2c1` [Compound 103, (E)-1-(4-((4-([1,2,4]triazolo[1,5-a]pyridin-6-yloxy)-3-methylphenyl)amino)-7,8-dihydropyrido[3′,4′:4,5]thieno[2,3-d]pyrimidin-6(5H)-yl)-4-(dimethylamino)but-2-en-1-one] gave a pIC50 of less than 5.00. Further, in test [2], the negative-log EC50 (pEC50) is 6.00 to 7.00; the “Selectivity A431 EC50/BT474 EC50” value is “B (B: ≥ 20 and < 100)”; the “Selectivity A431 EC50/HEKYVMA EC50” value was “B (B: ≥ 20 and < 100)”.

In turn, `COCCN1CCN(C/C=C/C(=O)N2CCc3c(sc4ncnc(Nc5ccc(Oc6ccc(C)nc6)c(C)c5)c34)C2)CC1` [Compound 59] gave a negative-log IC50 (pIC50) in test [1] of less than 5.00. In test [2], the pEC50 is 6.00 to 7.00; the “Selectivity A431 EC50/BT474 EC50” value was “B (B: ≥ 20 and < 100)”; the “Selectivity A431 EC50/HEKYVMA EC50” value was “C (C: ≥ 10 and < 20)”.

Compound `CON(C)C/C=C/C(=O)N1CCc2c(sc3ncnc(Nc4ccc(Oc5ccc(C)nc5)c(C)c4)c23)C1` [Compound 56] showed a pIC50 in test [1] of less than 5.00. In test [2], the pEC50 is 5.00 to 6.00; the “Selectivity A431 EC50/BT474 EC50” value was “C (C: ≥ 10 and < 20)”; the “Selectivity A431 EC50/HEKYVMA EC50” value is “B (B: ≥ 20 and < 100)”.

In the case of `C=C(CN1CCc2c(sc3ncnc(Nc4ccc(Oc5ccc(C)nc5)c(C)c4)c23)C1)C(=O)OCC` [Compound 86, Ethyl 2-((4-((3-methyl-4-((6-methylpyridin-3-yl)oxy)phenyl)amino)-5,8-dihydropyrido[4′,3′:4,5]thieno[2,3-d]pyrimidin-7(6H)-yl)methyl)acrylate], the negative-log IC50 (pIC50) in test [1] is less than 5.00. In test [2], the pEC50 was less than 5.00; the “Selectivity A431 EC50/BT474 EC50” value was “B (B: ≥ 20 and < 100)”; the “Selectivity A431 EC50/HEKYVMA EC50” value is “A (A: ≥100)”.

`Cc1ccc(Oc2ccc(Nc3ncnc4sc5c(c34)CCN(C(=O)/C=C/CN3CC4CC4C3)C5)cc2C)cn1` (centres unmarked) [Compound 76] showed a pIC50 in test [1] of 5.00 to 6.00. In test [2], the negative-log EC50 (pEC50) is greater than 7.00; the “Selectivity A431 EC50/BT474 EC50” value is “C (C: ≥ 10 and < 20)”; the “Selectivity A431 EC50/HEKYVMA EC50” value is “C (C: ≥ 10 and < 20)”.

Take `Cc1ccc(Oc2ccc(Nc3ncnc4sc5c(c34)CCN(C(=O)/C=C/CN3CCN4C(=O)CCC4C3)C5)cc2C)cn1` (centres unmarked) [Compound 58]: the pIC50 in test [1] is less than 5.00. Moreover, in test [2], the negative logarithm of the EC50 (pEC50) is 5.00 to 6.00; the “Selectivity A431 EC50/BT474 EC50” value is “C (C: ≥ 10 and < 20)”; the “Selectivity A431 EC50/HEKYVMA EC50” value is “D (D: ≥ 5 and < 10)”.

`O=C(/C=C/CN1CC2CC(C2)C1)N1CCc2c(sc3ncnc(Nc4ccc(Oc5ccc6ncnn6c5)c(Cl)c4)c23)C1` [Compound 85]: in test [1], the pIC50 is 5.00 to 6.00. Besides, in test [2], the pEC50 was 6.00 to 7.00; the “Selectivity A431 EC50/BT474 EC50” value was “C (C: ≥ 10 and < 20)”; the “Selectivity A431 EC50/HEKYVMA EC50” value is “C (C: ≥ 10 and < 20)”.

Usually pIC50 stands for −log10 of the IC50, conventionally taken in molar units. Lower therefore signals a high IC50. One may read the pEC50 as the negative decadic logarithm of the EC50, by convention in mol/L.
